The text below walks through data of patent US5632988A, “Polypeptide inhibitors of gamma interferon” (Schering Corporation, priority 1992, dated 1997).

For data set [1], the target named is T1, gamma interferon receptors on Daudi cells (Homo sapiens, UniProt P15260).
T1 construct: host or cells: Daudi cells (human B lymphoblast, Burkitt lymphoma)
T1 sequence (P15260 18-489): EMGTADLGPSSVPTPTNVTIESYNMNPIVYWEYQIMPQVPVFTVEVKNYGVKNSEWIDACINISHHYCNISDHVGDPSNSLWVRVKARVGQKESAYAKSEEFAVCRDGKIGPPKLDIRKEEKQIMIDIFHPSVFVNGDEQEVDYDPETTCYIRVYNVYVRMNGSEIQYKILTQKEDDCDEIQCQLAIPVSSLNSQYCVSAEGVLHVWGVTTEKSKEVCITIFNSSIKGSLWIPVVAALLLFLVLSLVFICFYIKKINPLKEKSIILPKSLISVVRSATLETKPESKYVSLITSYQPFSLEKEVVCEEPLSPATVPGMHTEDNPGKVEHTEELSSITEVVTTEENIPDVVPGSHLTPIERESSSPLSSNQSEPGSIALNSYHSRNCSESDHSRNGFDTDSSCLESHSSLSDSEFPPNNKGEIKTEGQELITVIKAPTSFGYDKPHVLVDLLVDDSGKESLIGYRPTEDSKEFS
Kind of data set: Inhibition of the binding of 125I-recombinant human gamma interferon to Daudi cells (radioligand-receptor assay). Particulars: for inhibition of the binding of the labeled interferon (in words; type of inhibition): FIGS. 1-4; for Ki: specific binding of 125I-recombinant human gamma interferon to Daudi cells, 2 hours at 4° C., Cheng et al. method. Here is the method:
The receptor assay employed a standard mixture of 6×10^5 Daudi cells in 1 ml of binding medium (RPMI 1640 medium, 10% fetal bovine serum, 0.02% sodium azide) containing 200,000 cpm of the labeled interferon. Controls additionally contained 1 μg of unlabeled interferon to determine nonspecific binding. Assays were carried out by adding 0.1 ml aliquots of binding medium with or without varying amounts of a potentially inhibitory polypeptide or protein to the standard mixtures, and incubating the combined mixtures for 2 hours at 4° C.
Following the incubation, the cells were pelleted by centrifugation at 13,000× g for 30 seconds at 4° C, and the supernatants were discarded. The cells were resuspended in 0.2 ml of fresh binding medium without labeled interferon at 4° C., after which the cells were centrifuged at 13,000× g for 2 minutes through a layer of dibutyl phthalate and dioctyl phthalate [0.2 ml of a 1:1 (vol/vol) mixture] to remove residual labeled interferon that was not specifically bound. Inhibition constants (Ki) were calculated according to the method of Cheng et al. [Biochem. Pharmacol. 22:3099 (1973)], in which [formula] where [L] is the ligand concentration and IC50 is the concentration of inhibitor required to decrease binding by 50%.

In data set [2] the test system is murine encephalomyocarditis virus. Kind of data set: Antiviral activity assay, human diploid foreskin cells infected with murine encephalomyocarditis virus (Rubinstein et al.). The format is cell-based. An excerpt:
It also is a potent inducer of the maturational differentiation of pro-monocytes to premacrophages. […] 37:755 (1981)]. […] 132:240 (1984)].

The test system of data set [3] is antiviral effects of recombinant human gamma interferon D. Nature of the data set: Inhibition of antiviral effects of recombinant human gamma interferon D on human diploid foreskin cells challenged with encephalomyocarditis virus (CPE scoring). It is filed as cell-based. How it is done:
Control Medium A, various dilutions in Medium A of recombinant human gamma Interferon D in the presence of a fixed concentration of polypeptide No. I, or various dilutions of Medium A of polypeptide No. III in the presence of a fixed concentration of the interferon were pipetted in 0.1 ml total volumes into the wells of 96-well flat bottom microtiter plates.
Aliquots of a suspension of human diploid foreskin cells (0.1 ml, 3.5×10^5 cells/ml) in Medium A were pipetted into the wells of the microtiter plates, and the plates were incubated for 4 hours in a 37° C., 5% CO2 incubator. […]
A 0.025-0.05 aliquot of a solution of crystal violet stain (Sigma Chemical Co., St. Louis, Mo.; 0.485% in an aqueous solution containing 3.2% formaldehyde and 32.3% 95% ethanol) was added to each well, and the plates were allowed to stand for 30 minutes for color development. The stain solution was removed and the wells were washed at least three times with distilled water, after which the plates were scored for CPE with the aid of a fluorescent light viewer.
CPE was graded semi-quantitatively on a scale of 0 to 4, with grade O CPE corresponding to a complete absence of cell lysis as measured by cell staining with crystal violet and grade 4 CPE corresponding to total cell lysis and lack of staining.

Ends that are not written are not given here.

What is called Ki is the dissociation constant of the complex between target and ligand, obtained from inhibition or displacement. On to poly(L-lysine), for which the “inhibition of the binding of the labeled interferon (in words; type of inhibition)” value in data set [1] (Daudi cells) is reported as “strong competitive inhibitors”. The Ki in data set [1] stood at 11000 nM.
The like results for poly(D-lysine) were, in that order, “strong competitive inhibitors” and 190 nM.
Consider protamine sulfate, for which, in data set [1], the Ki turned out to be 1100 nM.
Consider “AKKLSKDRMKKYMARRKWQKTGHAV [Polypeptide I]”, for which, in data set [1] (5 μM polypeptide, Daudi cells), the “Kd of labeled interferon in the presence of polypeptide (Scatchard analysis)” value is “marked increase”.
Take poly(L-glutamic acid): in data set [1], the Ki worked out at 290 nM.

B1: Recombinant human gamma interferon D: recombinant human gamma interferon D prepared from transformed E. coli, stimulus in antiviral and HLA-DR assays (protein, UniProt P01579 24-161, looked up)
Interferon gamma: QDPYVKEAENLKKYFNAGHSDVADNGTLFLGILKNWKEESDRKIMQSQIVSFYFKLFKNFKDDQSIQKSVETIKEDMNVKFFNSNKKKRDDFEKLTNYSVTDLNVQRKAIHELIQVMAELSPAAKTGKRKRSQMLFRG
modifications: E. coli recombinant
notes: recombinant human gamma interferon D prepared from transformed E. coli, stimulus in antiviral and HLA-DR assays
Turning to B1, the antiviral specific activity result in data set [2] is “about 4×10^6 units/mg”. For the same molecule, in data set [3] (interferon alone, 30 pM, scale 0 to 4), the CPE grade is 2. For the same molecule, the “cell protection / CPE” value in data set [3] (interferon alone, 1,200 pM) was “complete cell protection”.
